{"source": "ChEMBL document CHEMBL3124756", "about": "“Hepatitis C virus NS5A replication complex inhibitors. Part 6: Discovery of a novel and highly potent biarylimidazole chemotype with inhibitory activity toward genotypes 1a and 1b replicons” (J Med Chem, 2014)"}
{"tested_on": "not listed separately", "assay": "Cytotoxicity against human HuH7 cells infected with HCV genotype 1b after 72 hrs by Alamar blue assay", "assay_type": "cell-based, Huh-7", "conditions": "not given; call rule not given here", "units": {"CC50 at 72 h": "nM"}}
{"smiles": "COC(=O)N[C@@H](C(=O)N1CCC[C@H]1c1ncc(-c2ccc(-c3ccc(-c4cnc([C@@H]5CCCN5C(=O)Cc5ccccc5)[nH]4)cc3)cc2)[nH]1)c1ccccc1", "CC50 at 72 h": "> 10000"}
{"smiles": "COC(=O)N[C@@H](C(=O)N1CCC[C@H]1c1ncc(-c2ccc(-c3ccc(-c4cnc([C@@H]5CCCN5C(=O)OC(C)(C)C)[nH]4)cc3)cc2)[nH]1)c1ccccc1", "CC50 at 72 h": "> 10000"}
{"smiles": "CN(C)[C@@H](C(=O)N1CCC[C@H]1C(=O)Nc1ccc(-c2cnc(-c3ccc(NC(=O)[C@@H]4CCCN4C(=O)[C@@H](c4ccccc4)N(C)C)cc3)o2)cc1)c1ccccc1", "CC50 at 72 h": 6010}
{"smiles": "O=C(Cc1ccccc1)N1CCC[C@H]1c1nc2cc(C#Cc3ccc4oc([C@@H]5CCCN5C(=O)Cc5ccccc5)nc4c3)ccc2o1", "CC50 at 72 h": "> 10000"}
{"smiles": "CN(C)[C@@H](C(=O)N1CCC[C@H]1C(=O)Nc1cccc(-c2ncc(-c3ccc4nc([C@@H]5CCCN5C(=O)[C@@H](c5ccccc5)N(C)C)[nH]c4c3)o2)c1)c1ccccc1", "CC50 at 72 h": 8610}
{"tested_on": "Hepatitis C virus", "assay": "Antiviral activity against Hepatitis C virus genotype 1a infected in human HuH7 cells after 5 days by ELISA", "assay_type": "functional, organism-based, Hepacivirus hominis", "conditions": "subtype 1a, Huh-7, 120 h", "units": {"EC50": "nM"}}
{"smiles": "COC(=O)N[C@@H](C(=O)N1CCC[C@H]1c1ncc(-c2ccc(-c3ccc(-c4cnc([C@@H]5CCCN5C(=O)Cc5ccccc5)[nH]4)cc3)cc2)[nH]1)c1ccccc1", "EC50": 14.9}
{"smiles": "O=C(Cc1ccccc1)N1CCC[C@H]1c1nc2cc(C#Cc3ccc4oc([C@@H]5CCCN5C(=O)Cc5ccccc5)nc4c3)ccc2o1", "EC50": "> 1000"}
{"smiles": "CN(C)[C@@H](C(=O)N1CCC[C@H]1C(=O)Nc1cccc(-c2ncc(-c3ccc4nc([C@@H]5CCCN5C(=O)[C@@H](c5ccccc5)N(C)C)[nH]c4c3)o2)c1)c1ccccc1", "EC50": 3.5}
{"tested_on": "Hepatitis C virus", "assay": "Antiviral activity against Hepatitis C virus genotype 1a infected in human HuH7 cells after 72 hrs by FRET assay", "assay_type": "functional, organism-based, Hepacivirus hominis", "conditions": "subtype 1a, Huh-7, 72 h", "units": {"EC50": "nM"}}
{"smiles": "COC(=O)N[C@@H](C(=O)N1CCC[C@H]1c1ncc(-c2ccc(-c3ccc(-c4cnc([C@@H]5CCCN5C(=O)OC(C)(C)C)[nH]4)cc3)cc2)[nH]1)c1ccccc1", "EC50": 203}
{"smiles": "CN(C)[C@@H](C(=O)N1CCC[C@H]1C(=O)Nc1ccc(-c2cnc(-c3ccc(NC(=O)[C@@H]4CCCN4C(=O)[C@@H](c4ccccc4)N(C)C)cc3)o2)cc1)c1ccccc1", "EC50": 568}
{"tested_on": "not listed separately", "assay": "Drug metabolism in assay medium assessed as parent compound level at 5 uM after 48 hrs by LC/MS analysis", "assay_type": "physicochemical", "conditions": "not given"}
{"smiles": "O=C(Cc1ccccc1)N1CCC[C@H]1c1nc2cc(C#Cc3ccc4oc([C@@H]5CCCN5C(=O)Cc5ccccc5)nc4c3)ccc2o1", "Drug metabolism": "Active"}
{"tested_on": "Hepatitis C virus", "assay": "Antiviral activity against Hepatitis C virus genotype 1b expressing […] resistant-mutant infected in human HuH7 cells after 72 hrs by FRET assay", "assay_type": "functional, organism-based, Hepacivirus hominis", "conditions": "Huh-7, 72 h", "units": {"EC50": "nM"}}
{"smiles": "CN(C)[C@@H](C(=O)N1CCC[C@H]1C(=O)Nc1cccc(-c2ncc(-c3ccc4nc([C@@H]5CCCN5C(=O)[C@@H](c5ccccc5)N(C)C)[nH]c4c3)o2)c1)c1ccccc1", "EC50": "> 1000"}
{"tested_on": "Bovine viral diarrhea virus 1", "assay": "Antiviral activity against Bovine viral diarrhea virus infected in human HuH7 cells by luciferase reporter gene assay", "assay_type": "functional, organism-based", "conditions": "Bovine viral diarrhea virus isolates and strains, Huh-7", "units": {"EC50": "nM"}}
{"smiles": "COC(=O)N[C@@H](C(=O)N1CCC[C@H]1c1ncc(-c2ccc(-c3ccc(-c4cnc([C@@H]5CCCN5C(=O)Cc5ccccc5)[nH]4)cc3)cc2)[nH]1)c1ccccc1", "EC50": 523}
{"smiles": "COC(=O)N[C@@H](C(=O)N1CCC[C@H]1c1ncc(-c2ccc(-c3ccc(-c4cnc([C@@H]5CCCN5C(=O)OC(C)(C)C)[nH]4)cc3)cc2)[nH]1)c1ccccc1", "EC50": 110}
{"smiles": "CN(C)[C@@H](C(=O)N1CCC[C@H]1C(=O)Nc1ccc(-c2cnc(-c3ccc(NC(=O)[C@@H]4CCCN4C(=O)[C@@H](c4ccccc4)N(C)C)cc3)o2)cc1)c1ccccc1", "EC50": 1570}
{"smiles": "O=C(Cc1ccccc1)N1CCC[C@H]1c1nc2cc(C#Cc3ccc4oc([C@@H]5CCCN5C(=O)Cc5ccccc5)nc4c3)ccc2o1", "EC50": 412}
{"smiles": "CN(C)[C@@H](C(=O)N1CCC[C@H]1C(=O)Nc1cccc(-c2ncc(-c3ccc4nc([C@@H]5CCCN5C(=O)[C@@H](c5ccccc5)N(C)C)[nH]c4c3)o2)c1)c1ccccc1", "EC50": 3090}
{"tested_on": "Salmonella typhimurium", "assay": "Mutagenic activity in Salmonella typhimurium TA 100 at 1 to 1000 ug/well after 48 hrs by Ames test in presence of rat liver S9 fraction", "assay_type": "toxicity, organism-based", "conditions": "salmonella enterica subsp. enterica serovar typhimurium, s9, 48 h"}
{"smiles": "Nc1ccc(/C=C/c2ccc(NC(=O)[C@@H]3CCCN3C(=O)Cc3ccccc3)cc2)cc1", "Activity": "Toxic"}
{"tested_on": "Hepatitis C virus", "assay": "Antiviral activity against Hepatitis C virus genotype 1b infected in human HuH7 cells after 72 hrs by FRET assay", "assay_type": "functional, organism-based, Hepacivirus hominis", "conditions": "Huh-7, 72 h", "units": {"EC50": "nM"}}
{"smiles": "COC(=O)N[C@@H](C(=O)N1CCC[C@H]1c1ncc(-c2ccc(-c3ccc(-c4cnc([C@@H]5CCCN5C(=O)Cc5ccccc5)[nH]4)cc3)cc2)[nH]1)c1ccccc1", "EC50": 0.004}
{"smiles": "COC(=O)N[C@@H](C(=O)N1CCC[C@H]1c1ncc(-c2ccc(-c3ccc(-c4cnc([C@@H]5CCCN5C(=O)OC(C)(C)C)[nH]4)cc3)cc2)[nH]1)c1ccccc1", "EC50": 0.011}
{"smiles": "CN(C)[C@@H](C(=O)N1CCC[C@H]1C(=O)Nc1ccc(-c2cnc(-c3ccc(NC(=O)[C@@H]4CCCN4C(=O)[C@@H](c4ccccc4)N(C)C)cc3)o2)cc1)c1ccccc1", "EC50": 677}
{"smiles": "O=C(Nc1ccc(-c2cnc(-c3ccc(NC(=O)[C@@H]4CCCN4C(=O)Cc4ccccc4)cc3)o2)cc1)[C@@H]1CCCN1C(=O)Cc1ccccc1", "EC50": 429}
{"smiles": "O=C(Cc1ccccc1)N1CCC[C@H]1c1nc2cc(C#Cc3ccc4oc([C@@H]5CCCN5C(=O)Cc5ccccc5)nc4c3)ccc2o1", "EC50": "> 1000"}
{"smiles": "CN(C)[C@@H](C(=O)N1CCC[C@H]1C(=O)Nc1cccc(-c2ncc(-c3ccc4nc([C@@H]5CCCN5C(=O)[C@@H](c5ccccc5)N(C)C)[nH]c4c3)o2)c1)c1ccccc1", "EC50": 0.14}
